Results reported in ChEMBL document CHEMBL2021805, “Structural polymorphism of human telomere G-quadruplex induced by a pyridyl carboxamide molecule” (Bioorg Med Chem Lett, 2012).
Activity calls are given as the source filed them. No cut-off for these calls is given here.

Tests used:
Format in all cases: nucleic-acid assay
Nucleic Acid [1] = test: Stabilization of human G-quadruplex G4A in 100 mM K+ solution assessed as formation of stable parallel structure at 60 uM after 1 day at 37 degC by CD spectroscopy
Nucleic Acid [2] = test: Binding affinity to human G-quadruplex Ap-18 substituted 21G assessed as fluorescence quenching using ascorbic acid at 5 uM up to 1 hr by fluorescence analysis
Nucleic Acid [3] = test: Stabilization of human hybrid-type G-quadruplex G4A in 100 mM K+ solution at room temperature assessed as formation of anti-parallel structure at 60 uM by CD spectroscopy
Nucleic Acid [4] = test: Binding affinity to human G-quadruplex FAM-21G at 10 uM after 2 to 24 hrs by native PAGE analysis
Nucleic Acid [5] = test: Binding affinity to human G-quadruplex Ap-6 substituted 21G at 5 uM up to 1 hr by fluorescence analysis
Nucleic Acid [6] = test: Binding affinity to human G-quadruplex FAM-21G at 20 uM by native PAGE analysis
Nucleic Acid [7] = test: Stabilization of human G-quadruplex G4A in 100 mM K+ solution assessed as time required to the formation of stable snti-parallel quadruplex structure at 60 uM at 37 degC by CD spectroscopy
Nucleic Acid [8] = test: Stabilization of human hybrid-type G-quadruplex G4A in 100 mM Na+ solution at room temperature assessed as formation of anti-parallel structure at 60 uM by CD spectroscopy
Nucleic Acid [9] = test: Stabilization of human G-quadruplex G4A in 100 mM K+ solution assessed as formation of stable parallel structure at 60 uM after heating at 95 degC and cooling to room temperature by CD spectroscopy
Nucleic Acid [10] = test: Binding affinity to human G-quadruplex Ap-12 substituted 21G assessed as fluorescence quenching using ascorbic acid at 5 uM up to 1 hr by fluorescence analysis
Nucleic Acid [11] = test: Binding affinity to human G-quadruplex Ap-6 substituted 21G assessed as fluorescence quenching using ascorbic acid at 5 uM up to 1 hr by fluorescence analysis
Nucleic Acid [12] = test: Stabilization of human G-quadruplex G4A in 100 mM K+ solution assessed as formation of stable parallel structure measuring transformation rate constant at 60 uM after 1 day at 37 degC by CD spectroscopy
Nucleic Acid [13] = test: Binding affinity to human G-quadruplex Ap-12 substituted 21G at 5 uM up to 1 hr by fluorescence analysis
Nucleic Acid [14] = test: Stabilization of human G-quadruplex G4A in 100 mM K+ solution assessed as time required to the formation of stable parallel structure at 60 uM at 37 degC by CD spectroscopy
Nucleic Acid [15] = test: Binding affinity to human G-quadruplex Ap-18 substituted 21G at 5 uM up to 1 hr by fluorescence analysis

Activity (Nucleic Acid [1]): 99%
Activity (Nucleic Acid [2]): Active
Activity (Nucleic Acid [3]): Active
Activity (Nucleic Acid [4]): Active
Activity (Nucleic Acid [5]): Active
Activity (Nucleic Acid [6]): Active
TIME (Nucleic Acid [7]): 3 h
Activity (Nucleic Acid [8]): inactive
Activity (Nucleic Acid [9]): Active
Activity (Nucleic Acid [10]): Active
Activity (Nucleic Acid [11]): Active
Activity (Nucleic Acid [12]): 6.2 ×10⁻⁵ /s
Activity (Nucleic Acid [13]): Active
TIME (Nucleic Acid [14]): 20 h
Activity (Nucleic Acid [15]): Active
SMILES: C[N+]1(CC(=O)Nc2cccc(NC(=O)c3cccc(C(=O)Nc4cccc(NC(=O)C[N+]5(C)CCCCC5)n4)n3)n2)CCCCC1
